The record followed here is ChEMBL document CHEMBL1201862, “PubChem BioAssay data set” (2004).

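Assay format: 96-well plates, 48-hour exposure. GI50 is the concentration that inhibits growth by half.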 Active and inactive are the calls of the source. Cut-off read from the data, not from the text of the source: active = GI50 up to about 1.1 µM and inactive = higher. Where only a bound is given, the exact number is not on record here.

Test systems include SK-OV-3; Malme-3M; A549; SNB-19; LOX IMVI; SW-620; NCI-H522; HCT-15; LXFL 529; IGROV-1; A498; SNB-75; UACC-62; ACHN; K562; RPMI-8226; NCI-H226; MDA-N; MDA-MB-231; BT-549.
Common to all, as to test: growth of human tumour cells (NCI), 48 h

Consider `C#CCN(Cc1ccc2nc(-c3ccccc3)c(Cl)nc2c1)c1ccc(Cl)c(Cl)c1`, for which the GI50 with SK-OV-3, in the assay with Malme-3M, with A549, in the assay on SNB-19, with LOX IMVI and in the assay on SW-620 was > 100 µM (inactive) in each case. The GI50 in the assay with NCI-H522 is > 100 µM (inactive); with HCT-15, above 100 µM; in the assay with LXFL 529, > 100 µM (inactive); in the assay with IGROV-1, > 100 µM (inactive); in the assay on A498 it was > 100 µM (inactive); in the assay with SNB-75, > 100 µM (inactive). For the same compound, the GI50 in the assay with UACC-62, in the assay on ACHN and with K562 was > 100 µM (inactive) throughout.
For `CC(C)(Oc1ccc2c(=O)cc(-c3ccc(Cl)cc3)oc2c1)C(=O)Nc1c(Cl)cccc1Cl`, the GI50 in the assay on SK-OV-3, in the assay on Malme-3M, with A549, with SNB-19, in the assay on LOX IMVI and with SW-620 was > 100 µM (inactive) throughout. For the same compound, the GI50 is > 100 µM (inactive) in the assay with NCI-H522; 24.2 µM in the assay on HCT-15; > 100 µM (inactive) with LXFL 529; > 100 µM (inactive) in the assay with IGROV-1; > 100 µM (inactive) with RPMI-8226; > 100 µM (inactive) with A498. For the same compound, the GI50 in the assay on UACC-62 was > 100 µM (inactive); in the assay on K562, 5.98 µM (inactive).
Take `CCC12CCCN(Cc3ccccc3)C1c1c(n(C)c3ccccc13)CC2` (stereo not drawn): the GI50 in the assay on SK-OV-3 is > 253 µM (inactive); in the assay with Malme-3M, > 253 µM (inactive); with A549, > 25.3 µM (inactive); in the assay on SNB-19, > 253 µM (inactive); in the assay with LOX IMVI, 236 µM (inactive); in the assay with SW-620, 178 µM (inactive). Besides, the GI50 with NCI-H522 is 61.1 µM (inactive); in the assay on HCT-15 it was 185 µM; in the assay on LXFL 529, 167 µM (inactive); in the assay with IGROV-1 it was 159 µM (inactive); in the assay on RPMI-8226 it was 92.7 µM (inactive); in the assay with UACC-62, 230 µM (inactive). In addition, the values for the GI50 in the assay on NCI-H226, in the assay with ACHN and in the assay on K562 were > 253 µM (inactive), 246 µM (inactive) and 163 µM (inactive), respectively.
As for `COc1cc2cnc3c4cc(OCc5ccccc5)ccc4ccc3c2cc1OC`, the GI50 is 12.7 µM (inactive) in the assay with SK-OV-3; 36.3 µM (inactive) in the assay with Malme-3M; 25.5 µM (inactive) in the assay with A549; 34.8 µM (inactive) in the assay with SNB-19; 29.6 µM (inactive) in the assay with LOX IMVI; 54.3 µM (inactive) in the assay with SW-620. The GI50 is 17.3 µM (inactive) in the assay with NCI-H522; 70.1 µM in the assay on HCT-15; 18.8 µM (inactive) in the assay with LXFL 529; 28.1 µM (inactive) with IGROV-1; 2.96 µM (inactive) in the assay with RPMI-8226; 3.94 µM (inactive) in the assay on SNB-75. Also, the GI50 is 39.5 µM (inactive) in the assay on UACC-62, 25.8 µM (inactive) in the assay with NCI-H226, 46.7 µM (inactive) in the assay on ACHN and 10.4 µM (inactive) in the assay on K562.
Take `COc1cc(C2c3cc4c(cc3C(NCC(O)CO)C3COC(=O)[C@H]23)OCO4)cc(OC)c1OC` (stereo partly drawn): the GI50 was 0.422 µM (active) with SK-OV-3; > 100 µM (inactive) in the assay with Malme-3M; 0.356 µM (active) with SNB-19; 0.146 µM (active) in the assay with LOX IMVI; 0.51 µM (active) in the assay on SW-620; 0.0405 µM (active) in the assay with NCI-H522. For the same compound, the GI50 with HCT-15 was 2.45 µM; in the assay with LXFL 529, 0.163 µM (active); in the assay with IGROV-1, > 100 µM (inactive); in the assay with RPMI-8226 it was 0.321 µM (active); with SNB-75, 0.318 µM (active); in the assay on UACC-62, 0.0973 µM (active). The GI50 was 0.289 µM (active) in the assay with NCI-H226, 0.69 µM (active) in the assay with ACHN and 0.361 µM (active) in the assay on K562.
With `C/C(CC(=O)Nc1ccccc1[N+](=O)[O-])=N\NC(N)=O`, the GI50 in the assay with SK-OV-3, in the assay on Malme-3M, in the assay on A549, in the assay with LOX IMVI, in the assay on SW-620 and with NCI-H522 was > 100 µM (inactive) in each case. For the same compound, the GI50 in the assay on LXFL 529, with IGROV-1, in the assay on RPMI-8226, with SNB-75, in the assay with UACC-62 and in the assay on NCI-H226 was > 100 µM (inactive) each time. For the same compound, the GI50 in the assay with ACHN and with K562 was > 100 µM (inactive) in each case.
With `CC1=CC(=O)NCCN1C`, the GI50 in the assay with SK-OV-3 is > 100 µM (inactive); in the assay on Malme-3M, > 100 µM (inactive); with A549 it was > 100 µM (inactive); in the assay on SNB-19, > 100 µM (inactive); in the assay on LOX IMVI, 62.7 µM (inactive); in the assay on SW-620 it was 24.2 µM (inactive). Further, the GI50 in the assay with NCI-H522 is > 100 µM (inactive); in the assay on HCT-15, above 100 µM; with LXFL 529, > 100 µM (inactive); with IGROV-1, > 100 µM (inactive); with A498, > 100 µM (inactive); in the assay on SNB-75, > 100 µM (inactive). The GI50 was > 100 µM (inactive) with UACC-62, > 100 µM (inactive) in the assay with NCI-H226, > 100 µM (inactive) in the assay with ACHN and 73.5 µM (inactive) with K562.
Regarding `CO[C@H](C(=O)O[C@H]1C(=O)N2CCC3CCC1C32C)c1ccccc1` (stereo partly drawn), the GI50 in the assay on SK-OV-3, with Malme-3M, with A549, in the assay with SNB-19, in the assay on LOX IMVI and in the assay on SW-620 was > 100 µM (inactive) in each case. Also, the GI50 is > 100 µM (inactive) in the assay on NCI-H522; above 100 µM in the assay on HCT-15; > 100 µM (inactive) in the assay on LXFL 529; > 100 µM (inactive) in the assay on IGROV-1; > 100 µM (inactive) in the assay with RPMI-8226; > 100 µM (inactive) in the assay with SNB-75. For the same compound, the GI50 in the assay on UACC-62, with NCI-H226, in the assay on ACHN and with K562 was > 100 µM (inactive) throughout.
With `O=C1NC(NNc2ccccc2)=N/C1=C\c1ccccc1O`, the GI50 is > 100 µM (inactive) in the assay on SK-OV-3; > 100 µM (inactive) with Malme-3M; 72.6 µM (inactive) with A549; > 100 µM (inactive) with SNB-19; > 100 µM (inactive) in the assay with LOX IMVI; 58.1 µM (inactive) in the assay with SW-620. Also, the GI50 with NCI-H522 was 80.4 µM (inactive); in the assay on HCT-15, 44.2 µM; in the assay with MDA-N, 71.3 µM (inactive); in the assay on IGROV-1 it was 89.1 µM (inactive); in the assay with MDA-MB-231 it was 68.2 µM (inactive); with RPMI-8226, 81.5 µM (inactive). Further, the GI50 in the assay with A498 was 45.9 µM (inactive); in the assay on SNB-75, 43.4 µM (inactive); in the assay with UACC-62 it was 53.3 µM (inactive); with BT-549 it was 21 µM (inactive); in the assay on NCI-H226 it was 86.1 µM (inactive); in the assay on ACHN it was 49.1 µM (inactive). Besides, in the assay with K562, the GI50 was 50.2 µM (inactive).
`CCCCCCCCCCCCCCCC(=O)N(CCCCCCCCCCC(=O)O)CC(O)C(O)C(OC1OC(CO)C(O)C(O)C1O)C(O)CO` (stereo not drawn): the GI50 with SK-OV-3 is 54.7 µM (inactive); in the assay with Malme-3M it was 19.5 µM (inactive); in the assay on A549 it was > 100 µM (inactive); in the assay with SNB-19 it was 24.5 µM (inactive); with LOX IMVI it was 19.5 µM (inactive); in the assay on SW-620, 22.1 µM (inactive). Besides, the GI50 in the assay with NCI-H522 is 39.3 µM (inactive); with HCT-15, 41.2 µM; in the assay on MDA-N, 34.7 µM (inactive); in the assay with IGROV-1, 60.8 µM (inactive); with MDA-MB-231 it was > 100 µM (inactive); with RPMI-8226 it was 29.2 µM (inactive). Also, the GI50 in the assay with A498 was > 100 µM (inactive); in the assay with SNB-75 it was 38.9 µM (inactive); in the assay with UACC-62, 18.9 µM (inactive); in the assay with BT-549 it was 25.4 µM (inactive); in the assay with NCI-H226, > 100 µM (inactive); with ACHN it was > 100 µM (inactive). Moreover, the GI50 in the assay on K562 was 22.5 µM (inactive).
In the case of `COc1ccc(C(=O)O)c(Cc2cccc3ccccc23)c1`, the GI50 in the assay with SK-OV-3, with Malme-3M, in the assay on A549, with SNB-19, in the assay on LOX IMVI and with SW-620 was > 100 µM (inactive) in each case. The GI50 in the assay on NCI-H522 was > 100 µM (inactive); with HCT-15, above 100 µM; with LXFL 529, > 100 µM (inactive); in the assay with IGROV-1, > 100 µM (inactive); with SNB-75 it was > 100 µM (inactive); in the assay on UACC-62, 85.9 µM (inactive). The GI50 in the assay with NCI-H226 was > 100 µM (inactive); with ACHN, > 100 µM (inactive); in the assay on K562, 81.8 µM (inactive).
Regarding `CONC(C)=O`, the GI50 with SK-OV-3, in the assay on Malme-3M, in the assay on A549, in the assay on SNB-19, with LOX IMVI and in the assay with SW-620 was > 100 µM (inactive) in each case. The GI50 in the assay with NCI-H522 was > 100 µM (inactive); with HCT-15 it was above 100 µM; with MDA-N, > 100 µM (inactive); in the assay on IGROV-1, > 100 µM (inactive); with MDA-MB-231 it was > 100 µM (inactive); in the assay on RPMI-8226 it was > 100 µM (inactive). In addition, the GI50 in the assay with A498, in the assay on SNB-75, in the assay on UACC-62, in the assay with BT-549, in the assay on NCI-H226 and in the assay on ACHN was > 100 µM (inactive) in each case. The GI50 with K562 is > 100 µM (inactive).
